Experiment [1] relates to Beet Armyworm (BAW) (Spodoptera exigua). Kind of experiment: Bioassay on Beet Armyworm (BAW), 128-well diet tray assay. Type of experiment: in vivo. Particulars: Spodoptera exigua; Table 5: Prophetic Compounds Subsequently Exemplified; read-out: BAW Rating. In short, it runs like this:
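Artificial diet treated with 50 μg/cm^2 compound in 90:10 acetone-water was dried, then one to five second-instar larvae were placed per well, eight wells per compound. Trays were held at 25° C., 14:10 light-dark for five to seven days, and percent mortality averaged across wells.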

In experiment [2] the test system is Cabbage Looper (CL) (Trichoplusia ni). Description: Bioassay on Cabbage Looper (CL), 128-well diet tray assay. Type of experiment: in vivo. Particulars: Table 5: Prophetic Compounds Subsequently Exemplified, read-out: CL Rating. The method, then: Certain molecules disclosed in this document were tested against BAW, CEW and CL using procedures described in the following examples. In the reporting of the results, the “BAW & CEW & CL Rating Table” was used (See Table Section).
Bioassays on CL (Trichoplusia ni)
Bioassays on CL were conducted using a 128-well diet tray assay. One to five second instar CL larvae were placed in each well (3 mL) of the diet tray that had been previously filled with 1 mL of artificial diet to which 50 μg/cm^2 of the test compound (dissolved in 50 μL of 90:10 acetone-water mixture) had been applied (to each of eight wells) and then allowed to dry. Trays were covered with a clear self-adhesive cover, and held at 25° C., 14:10 light-dark for five to seven days. Percent mortality was recorded for the larvae in each well; activity in the eight wells was then averaged. The results are indicated in the table entitled “Table 4: Assay Results Part 2” (See Table Section).

Turning to `O=C(NC1(C(=O)NCC(F)(F)F)CC1)c1ccc(/C=C/C(c2cccc(OC(F)(F)F)c2)C(F)(F)F)cc1C(F)(F)F` (stereo not shown) [Compound P155], the pest or weed control at 50 µg/cm2 in experiment [1] and in experiment [2] was 50 to 100% throughout.
In the case of `O=C(NC1(C(=O)NCC(F)(F)F)CC1)c1ccc(/C=C/C(c2cc(F)cc(Br)c2)C(F)(F)F)cc1Br` (stereo not shown) [Compound P198], the pest or weed control at 50 µg/cm2 in experiment [1] and in experiment [2] was 50 to 100% throughout.
For `O=C(NC1(C(=O)NCC(F)(F)F)CC1)c1ccc(/C=C/C(c2cc(F)cc(Br)c2)C(F)(F)F)cc1C(F)(F)F` (stereo not shown) [Compound P200], the pest or weed control at 50 µg/cm2 in experiment [1] and in experiment [2] was 50 to 100% in each case.
For `Cc1cc(C(/C=C/c2ccc(C(=O)NC3(C(=O)NCC(F)(F)F)CC3)c(Br)c2)C(F)(F)F)ccc1Cl` (stereo not shown) [Compound P243], the pest or weed control at 50 µg/cm2 in experiment [1] and in experiment [2] was 50 to 100% throughout.
Take `Cc1cc(C(/C=C/c2ccc(C(=O)NC3(C(=O)NCC(F)(F)F)CC3)c(C(F)(F)F)c2)C(F)(F)F)ccc1Cl` (stereo not shown) [Compound P245]: the pest or weed control at 50 µg/cm2 in experiment [1] and in experiment [2] was 50 to 100% in each case.
Turning to `Cc1cc(C(/C=C/c2ccc(C(=O)NC3(C(=O)NCC(F)(F)F)CC3)c(Br)c2)C(F)(F)F)cc(C)c1F` (stereo not shown) [Compound P333], the pest or weed control at 50 µg/cm2 in experiment [1] and in experiment [2] was 50 to 100% throughout.
As for `Cc1cc(C(/C=C/c2ccc(C(=O)NC3(C(=O)NCC(F)(F)F)CC3)c(C(F)(F)F)c2)C(F)(F)F)cc(C)c1F` (stereo not shown) [Compound P335], the pest or weed control at 50 µg/cm2 in experiment [1] and in experiment [2] was 50 to 100% throughout.
`Cc1cc(C(/C=C/c2ccc(C(=O)NC3(C(=O)NCC(F)(F)F)CC3)c(C(F)(F)F)c2)C(F)(F)F)ccc1F` (stereo not shown) [Compound P336]: the pest or weed control at 50 µg/cm2 in experiment [1] and in experiment [2] was 50 to 100% each time.
In the case of `O=C(NC1(C(=O)NCC(F)(F)F)CC1)c1ccc(/C=C/C(c2cc(Cl)cc(Br)c2)C(F)(F)F)cc1Br` (stereo not shown) [Compound P378], the pest or weed control at 50 µg/cm2 in experiment [1] and in experiment [2] was 50 to 100% throughout.
Take `O=C(NC1(C(=O)NCC(F)(F)F)CC1)c1ccc(/C=C/C(c2cc(Cl)cc(Br)c2)C(F)(F)F)cc1C(F)(F)F` (stereo not shown) [Compound P380]: the pest or weed control at 50 µg/cm2 in experiment [1] and in experiment [2] was 50 to 100% in each case.
`O=C(NC1(C(=O)NCC(F)(F)F)CC1)c1ccc(/C=C/C(c2ccc(Br)c(Br)c2)C(F)(F)F)cc1Br` (stereo not shown) [Compound P423]: the pest or weed control at 50 µg/cm2 in experiment [1] and in experiment [2] was 50 to 100% in each case.
As to `O=C(NC1(C(=O)NCC(F)(F)F)CC1)c1ccc(/C=C/C(c2ccc(Br)c(Br)c2)C(F)(F)F)cc1C(F)(F)F` (stereo not shown) [Compound P425], the pest or weed control at 50 µg/cm2 in experiment [1] and in experiment [2] was 50 to 100% each time.
In the case of `O=C(NC1(C(=O)NCC(F)(F)F)CC1)c1ccc(/C=C/C(c2ccc(Cl)c([N+](=O)[O-])c2)C(F)(F)F)cc1Br` (stereo not shown) [Compound P468], the pest or weed control at 50 µg/cm2 in experiment [1] and in experiment [2] was 50 to 100% each time.
Regarding `N#Cc1cc(C(/C=C/c2ccc(C(=O)NC3(C(=O)NCC(F)(F)F)CC3)c(Br)c2)C(F)(F)F)ccc1F` (stereo not shown) [Compound P513], the pest or weed control at 50 µg/cm2 in experiment [1] and in experiment [2] was 50 to 100% throughout.
`N#Cc1cc(C(/C=C/c2ccc(C(=O)NC3(C(=O)NCC(F)(F)F)CC3)c(C(F)(F)F)c2)C(F)(F)F)ccc1F` (stereo not shown) [Compound P515]: the pest or weed control at 50 µg/cm2 in experiment [1] and in experiment [2] was 50 to 100% throughout.
Take `Cc1cc(C(/C=C/c2ccc(C(=O)NC3(C(=O)NCC(F)(F)F)CC3)c(Br)c2)C(F)(F)F)ccc1F` (stereo not shown) [Compound P693]: the pest or weed control at 50 µg/cm2 in experiment [1] and in experiment [2] was 50 to 100% throughout.
`O=C(NC1(C(=O)NCC(F)(F)F)CC1)c1ccc(/C=C/C(c2cc(Cl)c(Cl)c(Cl)c2)C(F)(F)C(F)(F)F)cc1Br` (stereo not shown) [Compound P1003]: the pest or weed control at 50 µg/cm2 in experiment [1] and in experiment [2] was 50 to 100% throughout.
`O=C(NC1(C(=O)NCC(F)(F)F)CC1)c1ccc(/C=C/C(c2cc(Cl)c(Cl)c(Cl)c2)C(F)(F)C(F)(F)F)cc1C(F)(F)F` (stereo not shown) [Compound P1005]: the pest or weed control at 50 µg/cm2 in experiment [1] and in experiment [2] was 50 to 100% in each case.
Regarding `O=C(NC1(C(=S)NCC(F)(F)F)CC1)c1ccc(/C=C/C(c2cc(Cl)c(Cl)c(Cl)c2)C(F)(F)F)cc1Br` (stereo not shown) [Compound P1009], the pest or weed control at 50 µg/cm2 in experiment [1] and in experiment [2] was 50 to 100% in each case.
Turning to `O=C(NC1(C(=S)NCC(F)(F)F)CC1)c1ccc(/C=C/C(c2cc(Cl)c(Cl)c(Cl)c2)C(F)(F)F)cc1Cl` (stereo not shown) [Compound P1010], the pest or weed control at 50 µg/cm2 in experiment [1] and in experiment [2] was 50 to 100% each time.
As to `Cc1cc(/C=C/C(c2cc(Cl)c(Cl)c(Cl)c2)C(F)(F)F)ccc1C(=O)NC1(C(=S)NCC(F)(F)F)CC1` (stereo not shown) [Compound P1011], the pest or weed control at 50 µg/cm2 in experiment [1] and in experiment [2] was 50 to 100% each time.
In the case of `O=C(NC1(C(=O)NCC(F)F)CC1)c1ccc(/C=C/C(c2cc(Cl)c(Cl)c(Cl)c2)C(F)(F)F)cc1C(F)(F)F` (stereo not shown) [Compound P1015], the pest or weed control at 50 µg/cm2 in experiment [1] and in experiment [2] was 50 to 100% each time.
As to `O=C(NC1(C(=O)NCCF)CC1)c1ccc(/C=C/C(c2cc(Cl)c(Cl)c(Cl)c2)C(F)(F)F)cc1C(F)(F)F` (stereo not shown) [Compound P1020], the pest or weed control at 50 µg/cm2 in experiment [1] and in experiment [2] was 50 to 100% throughout.
For `CCNC(=O)C1(NC(=O)c2ccc(/C=C/C(c3cc(Cl)c(Cl)c(Cl)c3)C(F)(F)F)cc2Br)CC1` (stereo not shown) [Compound P1023], the pest or weed control at 50 µg/cm2 in experiment [1] and in experiment [2] was 50 to 100% in each case.
Regarding `O=C(NC1(C(=O)NCCC(F)(F)F)CC1)c1ccc(/C=C/C(c2cc(Cl)c(Cl)c(Cl)c2)C(F)(F)F)cc1Br` (stereo not shown) [Compound P1033], the pest or weed control at 50 µg/cm2 in experiment [1] and in experiment [2] was 50 to 100% throughout.
`O=C(NC1(C(=O)NCCC(F)(F)F)CC1)c1ccc(/C=C/C(c2cc(Cl)c(Cl)c(Cl)c2)C(F)(F)F)cc1C(F)(F)F` (stereo not shown) [Compound P1035]: the pest or weed control at 50 µg/cm2 in experiment [1] and in experiment [2] was 50 to 100% throughout.
With `O=C(NC1(C(=O)NCC(F)(F)F)CC1)c1ccc(/C=C/C(c2cc(Cl)cc(Cl)c2)C(F)(F)C(F)(F)F)cc1Br` (stereo not shown) [Compound P1043], the pest or weed control at 50 µg/cm2 in experiment [1] and in experiment [2] was 50 to 100% throughout.
Regarding `O=C(NC1(C(=O)NCC(F)(F)F)CC1)c1ccc(/C=C/C(c2cc(Cl)cc(Cl)c2)C(F)(F)C(F)(F)F)cc1C(F)(F)F` (stereo not shown) [Compound P1045], the pest or weed control at 50 µg/cm2 in experiment [1] and in experiment [2] was 50 to 100% each time.
For the compound `O=C(NC1(C(=O)NCC(F)(F)F)CC1)c1ccc(/C=C/C(c2cc(Cl)cc(Cl)c2)C(F)(F)F)cc1Br` (stereo not shown) [Compound P1048], the pest or weed control at 50 µg/cm2 in experiment [1] and in experiment [2] was 50 to 100% in each case.
Consider `O=C(NC1(C(=O)NCC(F)(F)F)CC1)c1ccc(/C=C/C(c2cc(Cl)cc(Cl)c2)C(F)(F)F)cc1C(F)(F)F` (stereo not shown) [Compound P1050], for which the pest or weed control at 50 µg/cm2 in experiment [1] and in experiment [2] was 50 to 100% each time.
Consider `O=C(NC1(C(=O)NCC(F)(F)F)CC1)c1ccc(/C=C/C(c2ccc(Cl)c(Cl)c2)C(F)(F)F)cc1Br` (stereo not shown) [Compound P1093], for which the pest or weed control at 50 µg/cm2 in experiment [1] and in experiment [2] was 50 to 100% throughout.
Regarding `O=C(NC1(C(=O)NCC(F)(F)F)CC1)c1ccc(/C=C/C(c2ccc(Cl)c(Cl)c2)C(F)(F)F)cc1C(F)(F)F` (stereo not shown) [Compound P1095], the pest or weed control at 50 µg/cm2 in experiment [1] and in experiment [2] was 50 to 100% in each case.
With `O=C(NC1(C(=O)NCC(F)(F)F)CC1)c1ccc(/C=C/C(c2cc(Br)cc(Br)c2)C(F)(F)F)cc1Br` (stereo not shown) [Compound P1183], the pest or weed control at 50 µg/cm2 in experiment [1] and in experiment [2] was 50 to 100% in each case.
In the case of `O=C(NC1(C(=O)NCC(F)F)CC1)c1ccc(/C=C/C(c2cc(Br)cc(Br)c2)C(F)(F)F)cc1Br` (stereo not shown) [Compound P1193], the pest or weed control at 50 µg/cm2 in experiment [1] and in experiment [2] was 50 to 100% throughout.
Consider `O=C(NC1(C(=O)NCC(F)F)CC1)c1ccc(/C=C/C(c2cc(Br)cc(Br)c2)C(F)(F)F)cc1C(F)(F)F` (stereo not shown) [Compound P1195], for which the pest or weed control at 50 µg/cm2 in experiment [1] and in experiment [2] was 50 to 100% throughout.
`O=C(NC1(C(=O)NCC(F)(F)F)CC1)c1ccc(/C=C/C(c2cc(Br)cc(Br)c2)C(F)(F)F)cc1C(F)(F)F` (stereo not shown) [Compound P1198]: the pest or weed control at 50 µg/cm2 in experiment [1] and in experiment [2] was 50 to 100% in each case.
For the compound `O=C(NC1(C(=O)NCCF)CC1)c1ccc(/C=C/C(c2cc(Br)cc(Br)c2)C(F)(F)F)cc1C(F)(F)F` (stereo not shown) [Compound P1200], the pest or weed control at 50 µg/cm2 in experiment [1] and in experiment [2] was 50 to 100% in each case.
As to `O=C(NC1(C(=O)NCCC(F)(F)F)CC1)c1ccc(/C=C/C(c2cc(Br)cc(Br)c2)C(F)(F)F)cc1Br` (stereo not shown) [Compound P1213], the pest or weed control at 50 µg/cm2 in experiment [1] and in experiment [2] was 50 to 100% each time.

The values above are taken from patent US9212163B2, “Pesticidal compositions and processes related thereto” (Dow AgroSciences LLC, priority 2012, dated 2015).
